Experimental data reported in article PMC13071878, “Yeast Display Technology Enables Rapid Discovery of Low-Nanomolar Macrocyclic Peptide Inhibitors of Human Angiotensin-Converting Enzyme 2” (Journal of Medicinal Chemistry, 2026).

Key:
hACE2 [1] = target: T1, hACE2 (Homo sapiens, UniProt Q9BYF1); assay: biochemical
Method: The activity assay was performed by incubating 0.25 nM of hACE2 with 50 μM fluorogenic substrate Mca-Ala-Pro-Lys­(Dnp)–OH (MedChemExpress, Monmouth Junction, NJ, USA) and 3-fold MP dilutions (ranging from 0.03 nM to 100 μM). […] All reagents were diluted in 10 mM Tris–HCl, pH 7.4, 300 mM NaCl, 100 μM ZnCl2, 0.1% w/v BSA, and 0.1% v/v DMSO assay buffer. The measurements were performed on a Berthold TriStar LB 941 microplate reader (Berthold Technologies, Bad Wildbad, Germany) using flat-bottom 96-well half area Corning Costar plates (Corning, New York, USA). The enzymatic reactions were performed at 25 °C for 90 min, under shaking with a maximum excitation wavelength (λex) of 320 nm and maximum emission wavelength (λem) of 405 nm. The initial velocities were monitored as changes in fluorescence intensity. Half-maximum inhibitory concentration (IC50) values were determined using GraphPad Prism v8.2.1 software (GraphPad software Inc., San Diego, CA, USA). […] Fluorescence was recorded as described earlier (λex = 320 nm, λem = 405 nm) using a Berthold TriStar LB 941 microplate reader (Berthold Technologies, Bad Wildbad, Germany). Initial velocities (V 0) were plotted against substrate concentrations [S] and analyzed via nonlinear regression using a one-site specific binding model using GraphPad Prism v8.2.1 software (GraphPad software Inc., San Diego, CA, USA). […]

hACE1 = target: T2, hACE1 (Homo sapiens, UniProt P12821); assay: biochemical
T2 construct: purchased R&D Systems
Method: The activity assay was performed by incubating 0.25 nM of hACE2 with 50 μM fluorogenic substrate Mca-Ala-Pro-Lys­(Dnp)–OH (MedChemExpress, Monmouth Junction, NJ, USA) and 3-fold MP dilutions (ranging from 0.03 nM to 100 μM). […] All reagents were diluted in 10 mM Tris–HCl, pH 7.4, 300 mM NaCl, 100 μM ZnCl2, 0.1% w/v BSA, and 0.1% v/v DMSO assay buffer. The measurements were performed on a Berthold TriStar LB 941 microplate reader (Berthold Technologies, Bad Wildbad, Germany) using flat-bottom 96-well half area Corning Costar plates (Corning, New York, USA). The enzymatic reactions were performed at 25 °C for 90 min, under shaking with a maximum excitation wavelength (λex) of 320 nm and maximum emission wavelength (λem) of 405 nm. The initial velocities were monitored as changes in fluorescence intensity. Half-maximum inhibitory concentration (IC50) values were determined using GraphPad Prism v8.2.1 software (GraphPad software Inc., San Diego, CA, USA). […] Reactions were initiated by adding hACE2 (final concentration 0.25 nM) to the fluorogenic substrate in assay buffer at 25 °C. Fluorescence was recorded as described earlier (λex = 320 nm, λem = 405 nm) using a Berthold TriStar LB 941 microplate reader (Berthold Technologies, Bad Wildbad, Germany). Initial velocities (V 0) were plotted against substrate concentrations [S] and analyzed via nonlinear regression using a one-site specific binding model using GraphPad Prism v8.2.1 software (GraphPad software Inc., San Diego, CA, USA). […] All reagents were diluted in 10 mM Tris-HCl, pH 7.4, 300 mM NaCl, 100 μM ZnCl2, 0.1% w/v BSA, and 0.1% v/v DMSO buffer. Measurements and data analysis were performed as mentioned above.

hACE2 [2] = target: T1, hACE2; assay: Grating-coupled interferometry of synthetic MPs on immobilized hACE2; format: binding; details: synthetic MP, immobilized hACE2, 25 °C, pH 7.4, n = 1; read-out: KD (GCI)
Method: Measurements were performed using a Creoptix WAVEsystem and a 4PCH-STA WAVEchip (Creoptix, Malvern Panalytical, Malvern, UK). Prior to immobilization, all four flow channels were conditioned with 100 mM sodium borate, 1 M NaCl buffer pH 9.0, for 180 s at 10 μL/min, followed by three start-up cycles (3 cycles of 60 s at 10 μL/min) in running buffer (1X PBS pH 7.4 supplemented with 0.005% v/v Tween-20). Biotinylated hACE2 (10 μg/mL in running buffer) was captured on the chip surface with a 420 s injection cycle at 10 μL/min, achieving a target immobilization level of approximately 1000 pg/mm^2 surface mass per flow cell. Excess of unbound hACE2 was removed by washing with running buffer for 60 s at 10 μL/min. Binding experiments were conducted using regeneration-free kinetics (RFK). Seven serial 2-fold dilutions of each synthetic MP (2.5, 5, 10, 20, 40, 80, and 160 nM in running buffer) were injected at 25 °C with a continuous flow rate of 60 μL/min. Each MP concentration was allowed to associate for 60 s and dissociate for 45 s, with a final dissociation phase of 300 s monitored after the highest concentration. Response signals were double-referenced by subtracting the signal from an unmodified reference channel (untreated flow cell without hACE2 protein) and the signal from blank buffer injections to correct for bulk refractive index changes and systematic artifacts.

hACE2 [3] = target: T1, hACE2; assay: Isothermal titration calorimetry of synthetic MPs with hACE2; format: binding; details: 25 °C; for -TΔS (ITC): calculated
Method: Isothermal titration calorimetry (ITC) experiments were performed at 25 °C using a MicroCal iTC200 instrument ([…], Malvern Panalytical, Malvern, UK). The hACE2 protein (initial stock 11 mg/mL, 20 mM Tris pH 7.4, 200 mM NaCl) was diluted into the assay buffer (100 mM Tris pH 7.4, 200 mM NaCl) to a final concentration of 5 μM. […] Titrations consisted of an initial 0.4 μL injection (excluded from subsequent data analysis), followed by 18 injections of 2 μL each, with a stirring rate of 750 rpm to ensure rapid mixing. A 120 s interval was maintained between injections to ensure the baseline returned to equilibrium. Blank experiments involving the titration of the synthetic MPs into the assay buffer were performed to determine and subtract the heats of dilution. Data processing was conducted using the Origin software package version 7 (OriginLab Corporation, Northampton, MA, USA). The integrated heat signals were fitted to a single-site binding model to determine the association constant (K A), the dissociation constant ([…]), the enthalpy change (ΔH), and the binding stoichiometry (n). The Gibbs free energy (ΔG) and the entropy change (ΔS) were calculated using the standard thermodynamic relationship: ΔG=ΔH−TΔS=−RTln(KA)

[4] = Plasma stability of synthetic peptides (LC-MS); details: 37 °C; for half-life: human, plasma, plasma half-life t1/2, human plasma, 10 μM, LC-MS, n = 2
Method: The mixtures were incubated at 37 °C in a water bath (VWR, Pennsylvania, PA, USA). At designated time points (0, 0.25, 0.5, 1, 2, 4, 8, 24, and 48 h), 100 μL aliquots were withdrawn and quenched with 100 μL of 100% v/v ACN. Following centrifugation (10 min at 15000 g, 4 °C), 100 μL of the supernatant was collected and diluted with 50 μL of solvent A (99.9% v/v H2O and 0.1% v/v FA). Samples were characterized by LC–MS using an Agilent 1260 Infinity II LC system coupled to an InfinityLab LC/MSD mass spectrometer (Agilent Technologies, Santa Clara, CA, USA). The system operated with a standard ESI source in negative ionization mode. Separation was performed on a reversed-phase Symmetry C18 column (5 μm, 150 mm × 4.6 mm, Waters, Milford, MA, USA) using a linear gradient of 10–100% solvent B over 22 min at a flow rate of 0.6 mL/min (Solvent A: 99.9% v/v H2O and 0.1% v/v FA; Solvent B: 99.9% v/v ACN and 0.1% v/v FA). Data acquisition, processing, and analysis were performed using MestReNova v.12.0.1 (Mestrelab Research, Santiago de Compostela, Spain). All samples were analyzed in duplicate (n = 2). The percentage of remaining peptide was calculated by integrating the peak areas, with the area at 0 h defined as 100%. Half-lives (t 1/2) were determined via nonlinear regression analysis using GraphPad Prism (GraphPad software Inc., San Diego, CA, USA). Data are presented as mean values ± s.d.

hACE2 [5] = target: T1, hACE2; format: binding; details: yeast-displayed MP, serial dilutions of biotinylated hACE2
[6] = tested on: mouse model of induced colitis; set-up: method as in ref 26 (Byrnes et al. 2009); details: 300 mg/kg twice daily, citation mark lost in text, ref 26 (Byrnes et al. 2009); cited from earlier work

T2 sequence (P12821 30-1306): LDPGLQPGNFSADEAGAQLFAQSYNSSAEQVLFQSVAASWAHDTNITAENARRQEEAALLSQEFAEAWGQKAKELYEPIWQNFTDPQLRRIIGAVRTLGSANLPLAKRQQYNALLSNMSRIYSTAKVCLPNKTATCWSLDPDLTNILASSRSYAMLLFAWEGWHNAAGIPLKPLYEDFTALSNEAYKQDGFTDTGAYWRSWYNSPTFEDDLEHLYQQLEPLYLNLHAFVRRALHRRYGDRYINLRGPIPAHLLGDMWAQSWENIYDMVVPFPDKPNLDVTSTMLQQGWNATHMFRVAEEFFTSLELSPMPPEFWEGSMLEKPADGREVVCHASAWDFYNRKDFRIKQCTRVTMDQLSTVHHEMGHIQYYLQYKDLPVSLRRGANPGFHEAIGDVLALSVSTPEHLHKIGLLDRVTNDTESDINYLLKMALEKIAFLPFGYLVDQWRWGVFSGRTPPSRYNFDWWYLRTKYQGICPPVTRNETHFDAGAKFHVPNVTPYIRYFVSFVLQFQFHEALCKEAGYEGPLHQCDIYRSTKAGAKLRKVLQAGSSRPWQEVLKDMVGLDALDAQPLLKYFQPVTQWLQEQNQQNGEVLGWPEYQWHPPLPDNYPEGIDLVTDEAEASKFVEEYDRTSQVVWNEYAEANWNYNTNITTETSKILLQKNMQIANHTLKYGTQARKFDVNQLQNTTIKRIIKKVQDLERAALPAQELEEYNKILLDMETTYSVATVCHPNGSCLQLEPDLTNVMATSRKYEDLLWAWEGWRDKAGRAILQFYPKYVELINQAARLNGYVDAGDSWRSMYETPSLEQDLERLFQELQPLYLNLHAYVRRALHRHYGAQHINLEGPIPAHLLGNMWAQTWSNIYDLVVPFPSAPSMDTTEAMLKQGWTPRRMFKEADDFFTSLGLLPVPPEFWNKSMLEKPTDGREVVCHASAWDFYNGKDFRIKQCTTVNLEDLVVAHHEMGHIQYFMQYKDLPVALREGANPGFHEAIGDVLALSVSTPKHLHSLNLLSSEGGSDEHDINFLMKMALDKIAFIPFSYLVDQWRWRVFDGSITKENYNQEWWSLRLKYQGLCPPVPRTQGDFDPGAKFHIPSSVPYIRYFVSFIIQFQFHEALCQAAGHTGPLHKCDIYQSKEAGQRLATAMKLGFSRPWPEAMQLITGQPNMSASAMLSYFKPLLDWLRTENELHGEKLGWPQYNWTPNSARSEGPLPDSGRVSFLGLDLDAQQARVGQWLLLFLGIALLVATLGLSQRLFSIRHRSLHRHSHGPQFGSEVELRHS
T1 sequence (Q9BYF1 19-615): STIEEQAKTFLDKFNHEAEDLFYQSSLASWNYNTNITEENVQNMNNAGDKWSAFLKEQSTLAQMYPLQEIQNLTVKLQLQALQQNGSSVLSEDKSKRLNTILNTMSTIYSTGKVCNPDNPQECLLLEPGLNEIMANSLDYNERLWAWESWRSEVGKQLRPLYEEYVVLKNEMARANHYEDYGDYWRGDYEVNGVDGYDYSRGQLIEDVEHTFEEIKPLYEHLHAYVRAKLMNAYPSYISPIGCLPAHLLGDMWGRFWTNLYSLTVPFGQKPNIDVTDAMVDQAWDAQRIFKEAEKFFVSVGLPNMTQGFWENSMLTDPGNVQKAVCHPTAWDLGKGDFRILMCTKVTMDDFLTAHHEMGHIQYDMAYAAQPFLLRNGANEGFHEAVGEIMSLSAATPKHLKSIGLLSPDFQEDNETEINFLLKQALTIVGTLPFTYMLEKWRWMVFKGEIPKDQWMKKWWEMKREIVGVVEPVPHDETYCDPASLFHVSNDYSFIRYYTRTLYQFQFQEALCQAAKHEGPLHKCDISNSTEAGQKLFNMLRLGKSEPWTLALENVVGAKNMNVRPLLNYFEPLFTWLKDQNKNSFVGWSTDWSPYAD

Row | Compound | IC50 (hACE1) | Ki (hACE1) | half-life [4] | binding to hACE2 in yeast surface titration (in words) (hACE2 [5]) | other results
1 | CC(C)C[C@@H]1NC(=O)[C@H](Cc2ccccc2)NC(=O)[C@@H](NC(=O)[C@H](C)N)CSSC[C@@H](C(=O)N[C@@H](CO)C(=O)NCC(N)=O)NC(=O)[C@H](Cc2c[nH]c3ccccc23)NC(=O)[C@H](CC(C)C)NC(=O)[C@H](Cc2c[nH]c3ccccc23)NC(=O)[C@@H]2CSSC[C@H](NC(=O)[C@H](CCCNC(=N)N)NC1=O)C(=O)N[C@@H](Cc1c[nH]cn1)C(=O)N[C@@H](CCCNC(=N)N)C(=O)N[C@@H](CC(=O)O)C(=O)N[C@@H](C(C)C)C(=O)N[C@@H](CCCCN)C(=O)N2 [GR3.1.2] | > 100 µM | > 100 µM | 8.6 h |  | Ki (hACE2 [1]): 0.0015 µM; Kd (hACE2 [2]): 0.0041 µM; ΔH (ITC) (hACE2 [3]): -8.15 ± 0.14 kcal/mol; -TΔS (ITC) (hACE2 [3]): -1.96 kcal/mol; t1/2 times longer than GR1.1 ([4]; human plasma): 1.5 times; t1/2 times longer than GR1.4 ([4]; human plasma): 1.3 times
2 | ACEPLGYALFLCSG [GR1.9] |  |  |  | significantly attenuated | 
3 | ACEPAGYNLFLCSG [GR1.6] |  |  |  | completely abolished | 
4 | ACEPLGANLFLCSG [GR1.8] |  |  |  | completely abolished | 
5 | ACEPLGFNRWICSG [GR1.3, yeast-encoded “one-ring” macrocyclic peptide, GR1 family] |  |  |  | comparable binding affinities | 
6 | ACEPLAYNLFLCSG [GR1.7] |  |  |  | completely abolished | 
7 | CC(C)C[C@@H]1NC(=O)[C@H](CC(N)=O)NC(=O)[C@H](Cc2ccc(O)cc2)NC(=O)CNC(=O)[C@H](CC(C)C)NC(=O)[C@@H]2CCCN2C(=O)[C@H](CCC(=O)O)NC(=O)[C@@H](NC(=O)[C@H](C)N)CSSC[C@@H](C(=O)N[C@@H](CO)C(=O)NCC(N)=O)NC(=O)[C@H](CC(C)C)NC(=O)[C@H](Cc2ccccc2)NC1=O [GR1.4] | > 100 µM | > 100 µM | 6.5 h |  | ΔH (ITC) (hACE2 [3]): -8.01 ± 0.12 kcal/mol; -TΔS (ITC) (hACE2 [3]): -1.94 kcal/mol
8 | CC[C@H](C)[C@@H]1NC(=O)[C@H](Cc2ccccc2)NC(=O)[C@H](Cc2ccccc2)NC(=O)[C@@H](NC(=O)[C@H](C)N)CSSC[C@@H](C(=O)N[C@@H](CO)C(=O)NCC(N)=O)NC(=O)[C@H]([C@@H](C)CC)NC(=O)[C@H](Cc2c[nH]c3ccccc23)NC(=O)[C@H](CCCNC(=N)N)NC(=O)[C@H](CC(N)=O)NC(=O)[C@H](Cc2ccccc2)NC(=O)CNC1=O [GR1.1] | > 100 µM | > 100 µM | 5.4 h |  | 
9 | CC(C)C[C@@H]1NC(=O)[C@H](Cc2ccccc2)NC(=O)[C@@H](NC(=O)[C@H](C)N)CSSC[C@@H]2NC(=O)[C@H](CCCCN)NC(=O)[C@H](C(C)C)NC(=O)[C@H](CC(=O)O)NC(=O)[C@H](CCCNC(=N)N)NC(=O)[C@H](Cc3c[nH]cn3)NC(=O)[C@H](CSSC[C@@H](C(=O)N[C@@H](CO)C(=O)NCC(N)=O)NC(=O)[C@H](Cc3c[nH]c4ccccc34)NC(=O)[C@H](CC(C)C)NC(=O)[C@H](Cc3c[nH]c4ccccc34)NC2=O)NC(=O)[C@H](CCCNC(=N)N)NC1=O [GR3.1.3] |  |  |  |  | Ki (hACE2 [1]): 1.04 µM
10 | CC(C)C[C@H](N[C@@H](Cc1cncn1Cc1cc(Cl)cc(Cl)c1)C(=O)O)C(=O)O [MLN-4760] |  |  |  |  | effect on disease severity [6]: reduce disease severity
